Data set [1] concerns the target T1, human mGluR2 receptor (Homo sapiens, UniProt Q14416).
T1 construct: expressed in transfected cells; host or cells: CHO cells
The experiment in a line: [35S]GTPγS binding assay (PAM assay). Type of data set: biochemical. The note with it: in presence of glutamate at EC20; for GTPγS-hmGluR2 PAM Emax / Emax: maximal % effect relative to the control glutamate response; for EC50: membranes of CHO cells transfected with human mGluR2, -log EC50 in M, read-out: GTPγS-hmGluR2 PAM pEC50 (converted); for Emax: read-out: GTPγS-hmGluR2 PAM Emax. The procedure: The [^35S]GTPγS binding assay is a functional membrane-based assay used to study G-protein coupled receptor (GPCR) function whereby incorporation of a non-hydrolysable form of GTP, [^35S]GTPγS (guanosine 5′-triphosphate, labelled with […] ^35S), is measured. The G-protein α subunit catalyzes the exchange of guanosine 5′-diphosphate (GDP) by guanosine triphosphate (GTP) and on activation of the GPCR by an agonist, [^35S]GTPγS, becomes incorporated and cannot be cleaved to continue the exchange cycle (Harper (1998) Current Protocols in Pharmacology 2.6.1-10, John Wiley & Sons, Inc.). […] Here we describe the use of the [^35S]GTPγS binding assay using membranes from cells transfected with the human mGluR2 receptor and adapted from Schaffhauser et al. ((2003) Molecular Pharmacology 4:798-810) for the detection of the positive allosteric modulation (PAM) properties of the compounds of this invention.
CHO-cells were cultured to pre-confluence and stimulated with 5 mM butyrate for 24 h. Cells were then collected by scraping in PBS and cell suspension was centrifuged (10 min at 4000 RPM in benchtop centrifuge). Supernatant was discarded and pellet gently resuspended in 50 mM Tris-HCl, pH 7.4 by mixing with a vortex and pipetting up and down. The suspension was centrifuged at 16,000 RPM (Sorvall RC-5C plus rotor SS-34) for 10 minutes and the supernatant discarded. The pellet was homogenized in 5 mM Tris-HCl, pH 7.4 using an ultra-turrax homogenizer and centrifuged again (18,000 RPM, 20 min, 4° C.). The final pellet was resuspended in 50 mM Tris-HCl, pH 7.4 and stored at −80° C. in appropriate aliquots before use. Protein concentration was determined by the Bradford method (Bio-Rad, USA) with bovine serum albumin as standard.
Measurement of mGluR2 positive allosteric modulatory activity of test compounds was performed as follows. Test compounds and glutamate were diluted in assay buffer containing 10 mM HEPES acid, 10 mM HEPES salt, pH 7.4, 100 mM NaCl, 3 mM MgCl2 and 10 μM GDP. Human mGlu2 receptor-containing membranes were thawed on ice and diluted in assay buffer supplemented with 14 μg/ml saponin. Membranes were pre-incubated with compound alone or together with a predefined (˜EC20) concentration of glutamate (PAM assay) for 30 min at 30° C. After addition of [^35S]GTPγS (f.c. 0.1 nM), assay mixtures were shaken briefly and further incubated to allow [^35S]GTPγS incorporation on activation (30 minutes, 30° C.). Final assay mixtures contained 7 μg of membrane protein in 10 mM HEPES acid, 10 mM HEPES salt, pH 7.4, 100 mM NaCl, 3 mM MgCl2, 10 μM GDP and 10 μg/ml saponin. Total reaction volume was 200 μl. Reactions were terminated by rapid filtration through Unifilter-96 GF/B plates (Perkin Elmer, Mass., USA) using a 96-well filtermate universal harvester. Filters were washed 6 times with ice-cold 10 mM NaH2PO4/10 mM Na2HPO4, pH 7.4. Filters were then air-dried, and 40 μl of liquid scintillation cocktail (Microscint-O) was added to each well. Membrane-bound radioactivity was counted in a Microplate Scintillation and Luminescence Counter from Perkin Elmer.
The concentration-response curves of representative compounds of the present invention—obtained in the presence of EC20 of mGluR2 agonist glutamate to determine positive allosteric modulation (PAM)—were generated using the Lexis software interface (developed at J&J). Data were calculated as % of the control glutamate response, defined as the maximal response that is generated upon addition of glutamate alone. Sigmoid concentration-response curves plotting these percentages versus the log concentration of the test compound were analyzed using non-linear regression analysis. The concentration producing half-maximal effect is then calculated as EC50. The pEC50 values below were calculated as the −log EC50, when the EC50 is expressed in M. Emax is defined as relative maximal effect (i.e. maximal % effect relative to the control glutamate response).

T1 sequence (Q14416 19-872): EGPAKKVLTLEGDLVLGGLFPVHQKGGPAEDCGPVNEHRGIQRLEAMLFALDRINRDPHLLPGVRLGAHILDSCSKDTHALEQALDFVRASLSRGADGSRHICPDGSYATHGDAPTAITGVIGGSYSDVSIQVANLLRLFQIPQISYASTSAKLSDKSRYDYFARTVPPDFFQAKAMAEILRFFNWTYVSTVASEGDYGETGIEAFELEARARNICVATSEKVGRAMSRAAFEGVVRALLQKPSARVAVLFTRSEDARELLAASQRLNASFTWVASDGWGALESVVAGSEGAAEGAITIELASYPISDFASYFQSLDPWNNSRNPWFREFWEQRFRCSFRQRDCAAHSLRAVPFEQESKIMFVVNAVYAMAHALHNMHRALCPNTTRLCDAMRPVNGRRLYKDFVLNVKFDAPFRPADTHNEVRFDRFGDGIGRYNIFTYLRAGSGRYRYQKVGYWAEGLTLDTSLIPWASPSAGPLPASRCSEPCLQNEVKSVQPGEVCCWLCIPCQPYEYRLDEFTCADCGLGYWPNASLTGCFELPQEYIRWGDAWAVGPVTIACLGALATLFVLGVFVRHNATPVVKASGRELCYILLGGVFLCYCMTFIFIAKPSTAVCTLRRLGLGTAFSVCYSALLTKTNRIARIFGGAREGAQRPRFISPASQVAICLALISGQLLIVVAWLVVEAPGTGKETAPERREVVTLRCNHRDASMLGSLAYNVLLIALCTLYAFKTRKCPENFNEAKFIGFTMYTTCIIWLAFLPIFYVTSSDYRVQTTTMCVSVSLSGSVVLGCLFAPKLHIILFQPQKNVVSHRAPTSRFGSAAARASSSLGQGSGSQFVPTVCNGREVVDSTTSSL

With `FC(F)(F)c1c(CNC2CCOc3ccccc32)ccn2c(CC3CC3)nnc12` (single isomer, unassigned) [Co. no. 28a, (4*R)—N-{[3-(Cyclopropylmethyl)-8-(trifluoromethyl) [1,2,4]triazolo[4,3-a]pyridin-7-yl]methyl}-3,4-dihydro-2H-chromen-4-amine], the “GTPγS-hmGluR2 PAM Emax” value in data set [1] (listed as 28a) was found to be 257%. Besides, the EC50 in data set [1] is 794 nM.
With `FC(F)(F)c1c(CNC2CCOc3ccccc32)ccn2c(CC3CC3)nnc12` (single isomer, unassigned) [Co. no. 28b, (4*S)—N-{[3-(Cyclopropylmethyl)-8-(trifluoromethyl) [1,2,4]triazolo[4,3-a]pyridin-7-yl]methyl}-3,4-dihydro-2H-chromen-4-amine], the “GTPγS-hmGluR2 PAM Emax” value in data set [1] (listed as 28b) is listed as 285%. In data set [1], the EC50 was 575 nM.
With `Fc1ccc(N2CCC(NCc3ccn4c(CC5CC5)nnc4c3C(F)(F)F)CC2)c(F)c1` [Co. no. 2, 3-(Cyclopropylmethyl)-N-[1-(2,4-difluorophenyl)-4-piperidinyl]-8-(trifluoromethyl)-1,2,4-triazolo[4,3-a]pyridine-7-methanamine], in data set [1], the Emax was found to be 321% and the EC50 is 617 nM.
With `FC(F)(F)c1c(CN[C@H]2CC[C@H](c3ccccc3)CC2)ccn2c(CC3CC3)nnc12` [Co. no. 3, 3-(Cyclopropylmethyl)-N-(trans-4-phenylcyclohexyl)-8-(trifluoromethyl)-1,2,4-triazolo[4,3-a]pyridine-7-methanamine], the melting point amounted to 157.4 °C. Further, in data set [1], the maximal response (Emax) worked out at 235% and the EC50 is 234 nM.
As to `CCc1nnc2c(C(F)(F)F)c(CN[C@H]3CC[C@H](c4ccccc4)CC3)ccn12` [Co. no. 4, 3-Ethyl-N-(trans-4-phenylcyclohexyl)-8-(trifluoromethyl)-1,2,4-triazolo[4,3-a]-pyridine-7-methanamine], in data set [1], the Emax was found to be 197% and the EC50 is 1200 nM.
For `FC(F)(F)c1c(CNC2Cc3ccccc3C2)ccn2c(CC3CC3)nnc12` [Co. no. 6, 3-(Cyclopropylmethyl)-N-(2,3-dihydro-1H-inden-2-yl)-8-(trifluoromethyl)-1,2,4-triazolo[4,3-a]pyridine-7-methanamine] the same measures were 227% and 794 nM.
As to `FC(F)(F)c1c(CN[C@H]2CC[C@@H](c3ccccc3)CC2)ccn2c(CC3CC3)nnc12` [Co. no. 7, 3-(Cyclopropylmethyl)-N-(cis-4-phenylcyclohexyl)-8-(trifluoromethyl)-1,2,4-triazolo-[4,3-a]pyridine-7-methanamine], in data set [1], the Emax was 263% and the EC50 is 42.7 nM.
Take `CCc1nnc2c(C(F)(F)F)c(CN[C@H]3CC[C@@H](c4ccccc4)CC3)ccn12` [Co. no. 8, 3-Ethyl-N-(cis-4-phenylcyclohexyl)-8-(trifluoromethyl)-1,2,4-triazolo[4,3-a]pyridine-7-methanamine]: in data set [1], the Emax amounted to 228% and the EC50 is 324 nM.
As for `CCc1nnc2c(C(F)(F)F)c(CN[C@H]3CC[C@@H](c4ccc(F)cc4F)CC3)ccn12` [Co. no. 9, N-[Cis-4-(2,4-difluorophenyl)cyclohexyl]-3-ethyl-8-(trifluoromethyl)-1,2,4-triazolo[4,3-a]pyridine-7-methanamine], in data set [1], the maximal effect (Emax) worked out at 209% and the EC50 is 209 nM.
Regarding `CCOCc1nnc2c(C(F)(F)F)c(CN[C@H]3CC[C@@H](c4ccccc4)CC3)ccn12` [Co. no. 10, 3-(Ethoxymethyl)-N-(cis-4-phenylcyclohexyl)-8-(trifluoromethyl)-1,2,4-triazolo-[4,3-a]pyridine-7-methanamine], in data set [1], the maximal response (Emax) came out at 242% and the EC50 is 170 nM.
As to `CCOCc1nnc2c(C(F)(F)F)c(CN[C@H]3CC[C@H](c4ccccc4)CC3)ccn12` [Co. no. 11, 3-(Ethoxymethyl)-N-(trans-4-phenylcyclohexyl)-8-(trifluoromethyl)-1,2,4-triazolo-[4,3-a]pyridine-7-methanamine], the Emax in data set [1] stood at 278%.
Regarding `Clc1c(CN[C@H]2CC[C@@H](c3ccccc3)CC2)ccn2c(CC3CC3)nnc12` [Co. no. 12, 8-Chloro-3-(cyclopropylmethyl)-N-(cis-4-phenylcyclohexyl)-1,2,4-triazolo-[4,3-a]pyridine-7-methanamine], in data set [1], the Emax stood at 257% and the EC50 is 589 nM.
As to `Clc1c(CN[C@H]2CC[C@H](c3ccccc3)CC2)ccn2c(CC3CC3)nnc12` [Co. no. 13, 8-Chloro-3-(cyclopropylmethyl)-N-(trans-4-phenylcyclohexyl)-1,2,4-triazolo-[4,3-a]pyridine-7-methanamine], the maximal effect (Emax) in data set [1] was 243%.
Turning to `FC(F)(F)c1c(CNC2CC2c2ccccc2)ccn2c(CC3CC3)nnc12` (stereo not drawn) [Co. no. 27, Trans-N-{[3-(Cyclopropylmethyl)-8-(trifluoromethyl)[1,2,4]triazolo[4,3-a]pyridin-7-yl]methyl}-2-phenylcyclopropanamine], in data set [1], the maximal response (Emax) is 267% and the EC50 is 871 nM.
The compound `FC(F)(F)c1c(CN[C@H]2CCO[C@H](c3ccccc3)C2)ccn2c(CC3CC3)nnc12` [Co. no. 29, (2S,4S)—N-{[3-(Cyclopropylmethyl)-8-(trifluoromethyl) [1,2,4]triazolo[4,3-a]pyridin-7-yl]methyl}-2-phenyltetrahydro-2H-pyran-4-amine] came in with a melting point of 95.8 °C. Besides, the Emax in data set [1] is 209%.
With `FC(F)(F)c1c(CN[C@@H]2CCO[C@@H](c3ccccc3)C2)ccn2c(CC3CC3)nnc12` [Co. no. 30, (2R,4R)—N-{[3-(Cyclopropylmethyl)-8-(trifluoromethyl)[1,2,4]triazolo[4,3-a]pyridin-7-yl]methyl}-2-phenyltetrahydro-2H-pyran-4-amine], the melting point amounted to 139.6 °C. In data set [1], the maximal response (Emax) was 239% and the EC50 is 1200 nM.
Take `FC(F)(F)c1c(CNC2COCC2c2ccccc2)ccn2c(CC3CC3)nnc12` (stereo not drawn) [Co. no. 31, Cis-N-{[3-(Cyclopropylmethyl)-8-(trifluoromethyl) [1,2,4]triazolo[4,3-a]pyridin-7-yl]methyl}-4-phenyltetrahydrofuran-3-amine]: the Emax in data set [1] came to 201%.

Values taken from patent US9271967B2, “1,2,4-triazolo[4,3-a]pyridine derivatives and their use as positive allosteric modulators of mGluR2 receptors” (Janssen Pharmaceuticals, Inc., priority 2010, dated 2016).
